Source: patent publication US4209588A, “Process for producing new antitumor anthracycline antibiotics” (Zaidan Hojin Biseibutsu Kagaku Kenkyu Kai, priority 1976, dated 1980)
Values after ≈ are worked out from the molar mass of the structure shown.

Legend:
[1] = test system: L1210 cells; assay: Growth inhibition of cultured L1210 cells; details: Mus musculus, L1210, read-out: % Inhibition, Growth (on Day 2)
[2] = test system: Bac. subtilis ATCC 6633; assay: Minimum inhibitory concentration, broth dilution method; details: Bacillus subtilis, ATCC6633
[3] = test system: Staph. aureus FDA 209P; assay: as above; details: Staphylococcus aureus, FDA209P
[4] = test system: Staph. aureus Smith; assay: as above; details: Staphylococcus aureus
[5] = Acute toxicity, single intraperitoneal injection; details: mouse, in vivo, ip; single i.p. injection, dd mice; read-out: LD50, intraperitoneal administration
[6] = test system: Mic. flavus; assay: Minimum inhibitory concentration, broth dilution method; details: Micrococcus flavus
[7] = test system: Corv. bovis 1810; assay: as above
[8] = test system: Bac. megaterium NRRL B-938; assay: as above; details: Priestia megaterium, NRRLB938
[9] = test system: Pr. morganii; assay: as above; details: Morganella morganii
[10] = test system: Can. tropicalis IAM 4942; assay: as above; details: Candida tropicalis, IAM4942
[11] = test system: Sar. lutea ATCC 9341; assay: as above; details: Micrococcus luteus, ATCC9341
[12] = test system: Mycobact. smegmatis ATCC 607; assay: as above
[13] = test system: Ps. fluoroescens NIHJB-254; assay: as above
[14] = test system: P388 leukemia; assay: Inhibition of growth of P388 leukemia in mice; format: in vivo
[15] = test system: solid and ascitic-type mammalian malignant tumors; assay: Inhibitory action against solid and ascitic-type mammalian malignant tumors; format: in vivo, mammals
[16] = test system: Can. albicans IAM 4905; assay: Minimum inhibitory concentration, broth dilution method; details: Candida albicans, IAM4905
[17] = test system: Bac. cereus ATCC 9634; assay: as above; details: Bacillus cereus, ATCC9634
[18] = P388 leukemia in mice, in words
[19] = solid and ascitic-type mammalian tumors, in words

Row | Structure (SMILES) | inhibition at 0.1 µg/mL [1] [%] | MIC [2] [µg/mL] | MIC [3] [µg/mL] | MIC [4] [µg/mL] | LD50 [5] [mg/kg] | MIC [6] [µg/mL] | MIC [7] [µg/mL] | MIC [8] [µg/mL] | MIC [9] [µg/mL] | MIC [10] [µg/mL] | MIC [11] [µg/mL] | MIC [12] [µg/mL] | MIC [13] [µg/mL] | inhibiting the growth of P388 leukemia [14, 18] | inhibitory action against malignant tumors [15, 19] | MIC [16] [µg/mL] | MIC [17] [µg/mL] | inhibiting the growth of P388 leukemia ([14]; mouse, in vivo) | inhibitory action against malignant tumors ([15]; in vivo)
1 | CC[C@@]1(O)C[C@H](O[C@H]2C[C@H](N(C)C)[C@H](O[C@H]3C[C@H](O)[C@H](O[C@H]4CCC(=O)[C@H](C)O4)[C@H](C)O3)[C@H](C)O2)c2c(cc3c(c2O)C(=O)c2c(O)cccc2C3=O)[C@H]1C(=O)OC [Aclacinomycin, reference compound] | 89.7 | – | – | – | – | – | – | – | – | – | – | – | – | – | – | – | – | – | –
2 | CC[C@@]1(O)C[C@H](O[C@H]2C[C@H](N(C)C)[C@H](O[C@H]3C[C@H](O)[C@H](O[C@H]4C[C@H](O)[C@H](O)[C@H](C)O4)[C@H](C)O3)[C@H](C)O2)c2c(cc3c(c2O)C(=O)c2c(O)cccc2C3=O)[C@H]1C(=O)OC [MA 144-U1] | 78.5 | 3.1 (≈ 3.74 µM) | 6.25 (≈ 7.53 µM) | 3.1 (≈ 3.74 µM) | 30.2 | 1.56 (≈ 1.88 µM) | 6.25 (≈ 7.53 µM) | 3.1 (≈ 3.74 µM) | > 100 | > 100 | 1.56 (≈ 1.88 µM) | > 100 | > 100 | effective in inhibiting the growth of malignant tumors | marked inhibitory action | > 100 | 1.56 (≈ 1.88 µM) | – | –
3 | CC[C@@]1(O)C[C@H](O[C@H]2C[C@H](N(C)C)[C@H](O[C@H]3C[C@H](O)[C@H](OC4CCC(=O)C(C)O4)[C@H](C)O3)[C@H](C)O2)c2c(cc3c(c2O)C(=O)c2c(O)cccc2C3=O)[C@H]1C(=O)OC (stereo partly drawn) [D-cinerulosyl-2-deoxy-L-fucosyl-L-rhodosaminyl-alkavinone] | 80.7 | 3.12 (≈ 3.84 µM) | 6.25 (≈ 7.7 µM) | 1.56 (≈ 1.92 µM) | 28.5 | 0.2 (≈ 0.246 µM) | 1.56 (≈ 1.92 µM) | 6.25 (≈ 7.7 µM) | > 100 | 100 (≈ 123 µM) | 0.78 (≈ 0.961 µM) | 3.12 (≈ 3.84 µM) | 100 (≈ 123 µM) | – | – | 100 (≈ 123 µM) | 1.56 (≈ 1.92 µM) | effective in inhibiting the growth of malignant tumors | marked inhibitory action
4 | CC[C@@]1(O)C[C@H](O[C@H]2C[C@H](NC)[C@H](O[C@H]3C[C@H](O)[C@H](O[C@H]4CCC(=O)[C@H](C)O4)[C@H](C)O3)[C@H](C)O2)c2c(cc3c(c2O)C(=O)c2c(O)cccc2C3=O)[C@H]1C(=O)OC [MA 144-L] | 27.4 | 3.1 (≈ 3.89 µM) | 6.25 (≈ 7.83 µM) | 1.56 (≈ 1.96 µM) | 45.5 | 0.2 (≈ 0.251 µM) | 1.56 (≈ 1.96 µM) | 6.25 (≈ 7.83 µM) | > 100 | 100 (≈ 125 µM) | 0.78 (≈ 0.978 µM) | 3.1 (≈ 3.89 µM) | 100 (≈ 125 µM) | effective in inhibiting the growth of malignant tumors | marked inhibitory action | 100 (≈ 125 µM) | 1.56 (≈ 1.96 µM) | – | –
5 | CC[C@@]1(O)C[C@H](O[C@H]2C[C@H](N(C)C)[C@H](O[C@H]3C[C@H](O)[C@H](O[C@H]4C[C@H](O)[C@H](O)[C@H](C)O4)[C@H](C)O3)[C@H](C)O2)c2c(cc3c(c2O)C(=O)c2c(O)ccc(O)c2C3=O)[C@H]1C(=O)OC [MA 144-U2] | 80.5 | 3.1 (≈ 3.66 µM) | 3.1 (≈ 3.66 µM) | 0.78 (≈ 0.922 µM) | 14.5 | 0.78 (≈ 0.922 µM) | 6.25 (≈ 7.39 µM) | 1.56 (≈ 1.84 µM) | > 100 | > 100 | 1.56 (≈ 1.84 µM) | > 100 | > 100 | – | – | > 100 | 1.56 (≈ 1.84 µM) | effective in inhibiting the growth of malignant tumors | –
6 | CC[C@@]1(O)C[C@H](O[C@H]2C[C@H](N(C)C)[C@H](O[C@H]3C[C@H](O)[C@H](O)[C@H](C)O3)[C@H](C)O2)c2c(cc3c(c2O)C(=O)c2c(O)ccc(O)c2C3=O)[C@H]1C(=O)OC [MA 144-S2] | 88.1 | 3.1 (≈ 4.33 µM) | 6.25 (≈ 8.73 µM) | 0.78 (≈ 1.09 µM) | 12.5 | 0.78 (≈ 1.09 µM) | 0.78 (≈ 1.09 µM) | 3.1 (≈ 4.33 µM) | > 100 | > 100 | 1.56 (≈ 2.18 µM) | > 100 | > 100 | effective in inhibiting the growth of malignant tumors | – | > 100 | 0.78 (≈ 1.09 µM) | – | –
7 | CC[C@@]1(O)C[C@H](O[C@H]2C[C@H](N(C)C)[C@H](O[C@H]3C[C@H](O)[C@H](O[C@H]4C=CC(=O)[C@H](C)O4)[C@H](C)O3)[C@H](C)O2)c2c(cc3c(c2O)C(=O)c2c(O)cccc2C3=O)[C@H]1C(=O)OC [MA 144-Y] | 90.2 | 0.2 (≈ 0.247 µM) | 0.4 (≈ 0.494 µM) | 0.2 (≈ 0.247 µM) | 40 to 50 | 0.1 (≈ 0.123 µM) | 0.2 (≈ 0.247 µM) | 0.2 (≈ 0.247 µM) | > 100 | > 100 | 0.2 (≈ 0.247 µM) | 3.1 (≈ 3.83 µM) | > 100 | effective in inhibiting the growth of malignant tumors | marked inhibitory action | > 100 | 0.1 (≈ 0.123 µM) | – | –
8 | CC[C@@]1(O)C[C@H](O[C@H]2C[C@H](N(C)C)[C@H](O[C@H]3C[C@H](O)[C@H](O)[C@H](C)O3)[C@H](C)O2)c2c(cc3c(c2O)C(=O)c2c(O)cccc2C3=O)[C@H]1C(=O)OC [MA 144-S1, 2-deoxy-L-fucosyl-L-rhodosaminyl-aklavinone] | 86 | 3.1 (≈ 4.43 µM) | 6.25 (≈ 8.93 µM) | 3.1 (≈ 4.43 µM) | 24.4 | 1.56 (≈ 2.23 µM) | 0.78 (≈ 1.11 µM) | 3.1 (≈ 4.43 µM) | > 100 | > 100 | 1.56 (≈ 2.23 µM) | > 100 | > 100 | effective in inhibiting the growth of malignant tumors | marked inhibitory action | > 100 | 1.56 (≈ 2.23 µM) | – | –
9 | CC[C@@]1(O)C[C@H](O[C@H]2C[C@H](N(C)C)[C@H](O[C@H]3C[C@H](O)[C@H](OC4CCC(=O)C(C)O4)[C@H](C)O3)[C@H](C)O2)c2c(cc3c(c2O)C(=O)c2c(O)ccc(O)c2C3=O)[C@H]1C(=O)OC (stereo partly drawn) [D-cinerulosyl-2-deoxy-L-fucosyl-L-rhodosaminyl-ε-pyrromycinone] | 82.1 | 1.56 (≈ 1.88 µM) | 3.12 (≈ 3.77 µM) | 1.56 (≈ 1.88 µM) | 17 | 0.2 (≈ 0.242 µM) | 0.78 (≈ 0.942 µM) | 6.25 (≈ 7.55 µM) | > 100 | > 100 | 0.78 (≈ 0.942 µM) | 3.12 (≈ 3.77 µM) | 100 (≈ 121 µM) | – | – | > 100 | 0.78 (≈ 0.942 µM) | effective in inhibiting the growth of malignant tumors | marked inhibitory action
10 | CC[C@@]1(O)C[C@H](O[C@H]2C[C@H](N(C)C)[C@H](O[C@H]3C[C@H](O)[C@H](O[C@H]4CC[C@H](O)[C@H](C)O4)[C@H](C)O3)[C@H](C)O2)c2c(cc3c(c2O)C(=O)c2c(O)cccc2C3=O)[C@H]1C(=O)OC [MA 144-N1] | 79.2 | 3.1 (≈ 3.81 µM) | 6.25 (≈ 7.68 µM) | 0.78 (≈ 0.958 µM) | 32.5 | 0.4 (≈ 0.491 µM) | 0.78 (≈ 0.958 µM) | 3.1 (≈ 3.81 µM) | > 100 | > 100 | 0.78 (≈ 0.958 µM) | > 100 | > 100 | effective in inhibiting the growth of malignant tumors | marked inhibitory action | > 100 | 0.78 (≈ 0.958 µM) | – | –
